{"source": "patent US12384776B2", "about": "“Compounds and uses thereof” (Foghorn Therapeutics Inc., priority 2019, dated 2025)", "data": [{"molecular_target": "Nanoluciferase-BRD9 fusion protein (3×FLAG-NLuc-BRD9) in SYO-1 cells (Homo sapiens (Human), UniProt Q9H8M2)", "sequence (Q9H8M2 whole entry, the tested form may be a part)": "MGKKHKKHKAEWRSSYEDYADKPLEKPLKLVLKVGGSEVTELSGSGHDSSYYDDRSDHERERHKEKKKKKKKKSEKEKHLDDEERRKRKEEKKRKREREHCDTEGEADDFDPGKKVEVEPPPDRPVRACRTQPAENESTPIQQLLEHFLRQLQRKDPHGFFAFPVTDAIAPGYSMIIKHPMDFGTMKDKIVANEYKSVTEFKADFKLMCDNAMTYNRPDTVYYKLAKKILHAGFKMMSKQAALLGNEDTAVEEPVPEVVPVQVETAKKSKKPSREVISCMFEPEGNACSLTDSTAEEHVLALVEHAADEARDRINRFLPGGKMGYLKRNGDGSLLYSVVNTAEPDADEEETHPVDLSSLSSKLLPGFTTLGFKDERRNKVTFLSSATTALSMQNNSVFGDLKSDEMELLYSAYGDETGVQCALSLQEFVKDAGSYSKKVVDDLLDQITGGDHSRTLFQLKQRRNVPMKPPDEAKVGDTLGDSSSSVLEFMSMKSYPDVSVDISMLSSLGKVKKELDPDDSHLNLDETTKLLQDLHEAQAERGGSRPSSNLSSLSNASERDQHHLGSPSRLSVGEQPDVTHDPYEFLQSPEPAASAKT", "assay": "SYO1 BRD9 NanoLuc degradation assay", "assay_type": "cell-based", "conditions": "SYO-1 cells expressing 3×FLAG-NLuc-BRD9, 6 hours incubation, top dose 1 μM", "method_in_brief": "(§1)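 Degradation read as loss of NLuc signal after 6 h compound exposure (1 μM top final, 3-fold steps, 10 points, duplicates) in SYO-1 cells stably carrying 3×FLAG-NLuc-BRD9. Signal normalised between DMSO-treated cells and cells given 1 μM of a known BRD9 degrader.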", "units": {"IC50": "µM"}, "values": [{"smiles": "CNC(=O)N1CCc2c(-c3cc(OC)c(CN4CCOC(CCCN5CCN(c6ccc7c(c6)C(=O)N(C6CCC(=O)NC6=O)C7=O)CC5)C4)c(OC)c3)cn(C)c(=O)c2C1", "note": "(stereo not shown) [Compound D151]", "IC50": "< 0.01"}, {"smiles": "CNC(=O)N1CCc2c(-c3cc(OC)c(CN4CCC5(CC4)CN(C(=O)CCN4CCN(c6ccc7c(c6)C(=O)N(C6CCC(=O)NC6=O)C7=O)CC4)CCO5)c(OC)c3)cn(C)c(=O)c2C1", "note": "(stereo not shown) [Compound D175]", "IC50": "0.1 to 1"}, {"smiles": "COc1cc(-c2cn(C)c(=O)c3c2CCN(C(=O)NCCN2CCC4(C2)CN(c2ccc5c(c2)C(=O)N(C2CCC(=O)NC2=O)C5=O)C4)C3)cc(OC)c1CN(C)C", "note": "(stereo not shown) [Compound D189]", "IC50": "0.1 to 1"}, {"smiles": "CNC(=O)N1CCc2c(-c3cc(OC)c(CN4C[C@@H](C)N(CCC5CCN(c6ccc7c(c6)C(=O)N(C6CCC(=O)NC6=O)C7=O)CC5)[C@@H](C)C4)c(OC)c3)cn(C)c(=O)c2C1", "note": "(stereo partly shown) [Compound D42]", "IC50": "< 0.01"}, {"smiles": "COc1cc(-c2cn(C)c(=O)c3c2CCN(C(=O)NCC2CC4CN(CCCCN5CCN(c6ccc7c(c6)C(=O)N(C6CCC(=O)NC6=O)C7=O)CC5)CC4C2)C3)cc(OC)c1CN(C)C", "note": "(stereo not shown) [Compound D232]", "IC50": "0.01 to 0.1"}, {"smiles": "COc1cc(-c2cn(C)c(=O)c3c2CCN(C(=O)CC2CCC24CCN(CCCCN2CCN(c5ccc6c(c5)C(=O)N(C5CCC(=O)NC5=O)C6=O)CC2)CC4)C3)cc(OC)c1CN(C)C", "note": "(stereo not shown) [Compound D220]", "IC50": "0.1 to 1"}, {"smiles": "CNC(=O)N1CCc2c(-c3cc(OC)c(CN4CCC(=CCN5CCN(c6ccc7c(c6)C(=O)N(C6CCC(=O)NC6=O)C7=O)CC5)CC4)c(OC)c3)cn(C)c(=O)c2C1", "note": "(stereo not shown) [Compound D127]", "IC50": "< 0.01"}, {"smiles": "CNC(=O)N1CCc2c(-c3cc(OC)c(CN4CC(C(C)N5CCC6(CC5)CN(c5ccc7c(c5)CN(C5CCC(=O)NC5=O)C7)C6)C4)c(OC)c3)cn(C)c(=O)c2C1", "note": "(stereo not shown) [Compound D51]", "IC50": "< 0.01"}, {"smiles": "CNC(=O)N1CCc2c(-c3cc(OC)c(CN4CCC(CCN(C)C5CCCN(c6ccc7c(c6)C(=O)N(C6CCC(=O)NC6=O)C7=O)C5)CC4)c(OC)c3)cn(C)c(=O)c2C1", "note": "(stereo not shown) [Compound D173]", "IC50": "< 0.01"}, {"smiles": "COc1cc(-c2cn(C)c(=O)c3c2CCN(C(=O)NC2C[C@@H]4CN(CCCOc5ccc6c(c5)C(=O)N(C5CCC(=O)NC5=O)C6=O)C[C@H]24)C3)cc(OC)c1CN(C)C", "note": "(stereo partly shown) [Compound D248]", "IC50": "≥ 1"}, {"smiles": "COc1cc(-c2cn(C)c(=O)c3c2CCN(C(=O)NCC2CC4(CCN(CCCCN5CCN(c6ccc7c(c6)C(=O)N(C6CCC(=O)NC6=O)C7=O)CC5)CC4)C2)C3)cc(OC)c1CN(C)C", "note": "(stereo not shown) [Compound D218]", "IC50": "0.01 to 0.1"}, {"smiles": "CNC(=O)N1CCc2c(-c3cc(OC)c(CN4CCC(CCCN5CCN(C6CCC(=O)NC6=O)C(=O)C5)CC4)c(OC)c3)cn(C)c(=O)c2C1", "note": "(stereo not shown) [Compound D67]", "IC50": "0.1 to 1"}, {"smiles": "COc1cc(-c2cn(C)c(=O)c3c2CCN(C(=O)NCCN2CC4(CCN4c4ccc5c(c4)C(=O)N(C4CCC(=O)NC4=O)C5=O)C2)C3)cc(OC)c1CN(C)C", "note": "(stereo not shown) [Compound D192]", "IC50": "0.1 to 1"}, {"smiles": "CNC(=O)N1CCc2c(-c3cc(OC)c(CN4CCC(CCN5CCN(c6ccc7c(c6)C(=O)N(C6CCC(=O)NC6=O)C7=O)CC5)CC4)c(OC)c3)cn(C3CC3)c(=O)c2C1", "note": "(stereo not shown) [Compound D118]", "IC50": "< 0.01"}, {"smiles": "COc1cc(-c2cn(C)c(=O)c3c2CCN(C(=O)NC2CCC4CN(c5ccc6c(c5)C(=O)N(C5CCC(=O)NC5=O)C6=O)CC42)C3)cc(OC)c1CN(C)C", "note": "(stereo not shown) [Compound D119]", "IC50": "< 0.01"}, {"smiles": "COc1cc(-c2cn(C)c(=O)c3c2CCN(C(=O)NCCN2CC4(CCN(c5ccc6c(c5)C(=O)N(C5CCC(=O)NC5=O)C6=O)CC4)C2)C3)cc(OC)c1CN(C)C", "note": "(stereo not shown) [Compound D191]", "IC50": "0.1 to 1"}]}, {"molecular_target": "Nanoluciferase-BRD9 fusion protein (3×FLAG-NLuc-BRD9) in SYO-1 cells (Homo sapiens (Human), UniProt Q9H8M2)", "assay": "SYO1 BRD9 NanoLuc degradation assay", "assay_type": "cell-based", "conditions": "SYO-1 cells, 6 hours, Table 6C", "method_in_brief": "as §1", "units": {"IC50": "µM"}, "values": [{"smiles": "CNC(=O)N1CCc2c(-c3cc(OC)c(CN4CCC(CN5CCC6(CC5)CC(Oc5ccc7c(c5)C(=O)N(C5CCC(=O)NC5=O)C7=O)C6)CC4)c(OC)c3)cn(C(F)F)c(=O)c2C1", "note": "(stereo not shown) [Compound D338]", "IC50": "< 0.01"}, {"smiles": "COc1cc(-c2cn(C)c(=O)c3c2CCN(C(=O)NCC(F)F)C3)cc(OC)c1CN1CCN(CCC2CCN(c3ccc4c(c3)CN(C3CCC(=O)NC3=O)C4=O)CC2)CC12CC2", "note": "(stereo not shown) [Compound D311]", "IC50": "< 0.01"}, {"smiles": "COc1cc(-c2cn(C)c(=O)c3c2CCN(C(=O)NCC(F)F)C3)cc(OC)c1CN1CCN(CCC2CCN(c3ccc4c(c3)CN(C3CCC(=O)NC3=O)C4=O)CC2)CC12CCC2", "note": "(stereo not shown) [Compound D322]", "IC50": "< 0.01"}, {"smiles": "[2H]C([2H])([2H])n1cc(-c2cc(OC)c(CN3CCN(CCC4CCN(c5ccc6c(c5)C(=O)N(C5CCC(=O)NC5=O)C6)CC4)CC3)c(OC)c2)c2c(c1=O)CN(C(=O)NCC(F)F)CC2", "note": "(stereo not shown) [Compound D316]", "IC50": "≥ 1"}, {"smiles": "CNC(=O)N1CCc2c(-c3cc(OC)c(C4CN(c5ccc6c(c5)CN(C5CCC(=O)NC5=O)C6=O)C4)c(OC)c3)cn(C)c(=O)c2C1", "note": "(stereo not shown) [Compound D331]", "IC50": "≥ 0.01"}]}, {"molecular_target": "BRD9 bromodomain (Homo sapiens (Human), UniProt Q9H8M2)", "sequence (Q9H8M2 133-239)": "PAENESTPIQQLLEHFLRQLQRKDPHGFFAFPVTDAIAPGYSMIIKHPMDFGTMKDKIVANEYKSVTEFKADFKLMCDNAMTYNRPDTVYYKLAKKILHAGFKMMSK", "assay": "BRD9 bromodomain TR-FRET competition binding assay", "conditions": "not given", "description": "Procedure: His-Flag-BRD9 (P133-K239; Swiss Prot Q9H8M2; SEQ ID NO:1 mgsshhhhhhenlyfq/gdykddddkgslevlfqg/[…] […]) was cloned, expressed, purified, and then treated with TEV protease. Cleaved His tag was removed by purification. The binding of a biotinylated small molecule ligand of BRD9 was assessed via the LANCE® TR-FRET platform (PerkinElmer), and the compounds were assayed for inhibitory activity against this interaction.\nResults: A mixture of biotinylated-ligand and SureLight™ Allophycocyanin-Streptavidin (APC-SA, PerkinElmer AD0201) in 50 mM HEPES (pH 7.4), 50 mM NaCl, 1 mM TCEP (pH 7), 0.01% (v/v) Tween-20, 0.01% (w/v) bovine serum albumin was added to a white 384-well PerkinElmer Proxiplate Plus plate. DMSO or 3-fold serially diluted compounds were then added to the Proxiplate followed by addition of Flag-BRD9. After a 10-minute incubation at room temperature, Eu—W1024 anti-FLAG (PerkinElmer, AD0273) was added. The final reaction mixture that contained 3.75 nM biotinylated ligand, 3 nM Flag-BRD9, 7.5 nM SureLight™ Allophycocyanin-Streptavidin, and 0.2 nM Eu—W1024 anti-FLAG was incubated at room temperature for 90 minutes.\nThe plates were then read on a PerkinElmer Envision plate reader to determine the ratio of emission at 665 nm over 615 nm. […]", "units": {"IC50": "µM"}, "values": [{"smiles": "CCN1CCc2c(-c3cc(OC)c(CN(C)C)c(OC)c3)cn(C)c(=O)c2C1", "note": "[Compound B15, 4-[4-[(dimethylamino)methyl]-3,5-dimethoxyphenyl]-7-ethyl-2-methyl-1,2,5,6,7,8-hexahydro-2,7-naphthyridin-1-one formic acid]", "IC50": "> 1"}, {"smiles": "COc1cc(-c2cn(C)c(=O)c3c2CCN(C(=O)NCCOCCOCCOCC(=O)N[C@@H](C(=O)N2C[C@@H](O)C[C@@H]2C(=O)NCc2ccc(-c4scnc4C)cc2)C(C)(C)C)C3)cc(OC)c1CN(C)C", "note": "[Compound D35, (2R,4S)-1-[(2R)-2-[2-(2-[2-[2-(5-[4-[(dimethylamino)methyl]-3,5-dimethoxyphenyl]-7-methyl-8-oxo-3,4-dihydro-1H-2,7-naphthyridine-2-carbonylamino)ethoxy]ethoxy]ethoxy)acetamido]-3,3-dimethylbutanoyl]-4-hydroxy-N-[[4-(4-methyl-1,3-thiazol-5-yl)phenyl]methyl]pyrrolidine-2-carboxamide]", "IC50": "> 0.01"}, {"smiles": "CCCCNS(=O)(=O)N1CCc2c(-c3cc(OC)c(CN(C)C)c(OC)c3)cn(C)c(=O)c2C1", "note": "[Compound B19, N-butyl-5-{4-[(dimethylamino)methyl]-3,5-dimethoxyphenyl}-7-methyl-8-oxo-1,2,3,4,7,8-hexahydro-2,7-naphthyridine-2-sulfonamide]", "IC50": "> 0.01"}, {"smiles": "COc1cc(-c2cn(C)c(=O)c3c2CCNC3)cc(OC)c1CN(C)C", "note": "[Compound B17, 4-[4-[(dimethylamino)methyl]-3,5-dimethoxyphenyl]-2-methyl-1,2,5,6,7,8-hexahydro-2,7-naphthyridin-1-one]", "IC50": "> 1"}, {"smiles": "CNC(=O)N1CCc2c(-c3cc(OC)c(CN(C)C)c(OC)c3)cn(C)c(=O)c2C1", "note": "[Compound B9, 5-(4-((dimethylamino)methyl)-3,5-dimethoxyphenyl)-N,7-dimethyl-8-oxo-3,4,7,8-tetrahydro-2,7-naphthyridine-2 (1H)-carboxamide]", "IC50": "< 0.01"}, {"smiles": "COc1cc(-c2cn(C)c(=O)c3c2CN(C(=O)NCCOCCNc2cccc4c2C(=O)N(C2CCC(=O)NC2=O)C4=O)CC3)cc(OC)c1CN(C)C", "note": "(stereo not shown) [Compound D27, 8-[4-[(dimethylamino)methyl]-3,5-dimethoxyphenyl]-N-[2-(2-[[2-(2,6-dioxopiperidin-3-yl)-1,3-dioxoisoindol-4-yl]amino]ethoxy)ethyl]-6-methyl-5-oxo-3,4-dihydro-1H-2,6-naphthyridine-2-carboxamide formic acid]", "IC50": "> 0.1"}, {"smiles": "COc1cc(-c2cn(C)c(=O)c3c2CNC(C(N)=O)C3)cc(OC)c1CN(C)C", "note": "(stereo not shown) [Compound B4, 8-[4-[(dimethylamino)methyl]-3,5-dimethoxyphenyl]-6-methyl-5-oxo-1,2,3,4,5,6-hexahydro-2,6-naphthyridine-3-carboxamide]", "IC50": "> 1"}, {"smiles": "COc1cc(-c2cn(C)c(=O)c3c2CCN(C(=O)NC2CCN(CCOc4ccc5c(c4)C(=O)N(C4CCC(=O)NC4=O)C5=O)CC2)C3)cc(OC)c1CN(C)C", "note": "(stereo not shown) [Compound D26, 5-[4-[(dimethylamino)methyl]-3,5-dimethoxyphenyl]-N-[1-(2-[[2-(2,6-dioxopiperidin-3-yl)-1,3-dioxoisoindol-5-yl]oxy]ethyl)piperidin-4-yl]-7-methyl-8-oxo-3,4-dihydro-1H-2,7-naphthyridine-2-carboxamide formic acid]", "IC50": "< 0.01"}, {"smiles": "COc1cc(-c2cn(C)c(=O)c3c2CCN(C(=O)NCCOCCOCC(=O)N[C@H](C(=O)N2C[C@H](O)C[C@H]2C(=O)NCc2ccc(-c4scnc4C)cc2)C(C)(C)C)C3)cc(OC)c1CN(C)C", "note": "[Compound D34, (2S,4R)-1-[(2S)-2-(2-[2-[2-(5-[4-[(dimethylamino)methyl]-3,5-dimethoxyphenyl]-7-methyl-8-oxo-3,4-dihydro-1H-2,7-naphthyridine-2-carbonylamino)ethoxy]ethoxy]acetamido)-3,3-dimethylbutanoyl]-4-hydroxy-N-[[4-(4-methyl-1,3-thiazol-5-yl)phenyl]methyl]pyrrolidine-2-carboxamide formic acid]", "IC50": "> 0.01"}, {"smiles": "COc1cc(-c2cn(C)c(=O)c3c2CCN(CCO)C3)cc(OC)c1CN(C)C", "note": "[Compound B10, 4-[4-[(dimethylamino)methyl]-3,5-dimethoxyphenyl]-7-(2-hydroxyethyl)-2-methyl-1,2,5,6,7,8-hexahydro-2,7-naphthyridin-1-one]", "IC50": "> 1"}]}]}
